Measured values reported in patent US20230000816A1, “SODIUM-GLUCOSE LINKED TRANSPORTER INHIBITORS FOR THE MANAGEMENT OF CHRONIC KIDNEY DISEASE, HYPERTENSION, AND HEART FAILURE IN COMPANION ANIMALS” (INCREVET, INC., priority 2019, published 2023).

Assays:
[1] = test system: cats with diabetes; experiment: Measures of renal health (creatinine, BUN, SDMA) in diabetic cats managed with bexagliflozin, MMRM analysis; type: in vivo, cat
From the text: Venous blood specimens were collected at regular intervals and analyzed for standard parameters of interest for routine clinical care, including creatinine, BUN and SDMA. Owners were advised to provide a diet low in carbohydrates as an element of the disease management plan. An important consequence of the shift to a low carbohydrate diet is the increase in dietary protein (contributing to BUN) and specifically dietary muscle-derived protein (contributing to creatinine).
FIG. 6, FIG. 7 and FIG. 8 show the measured concentrations of creatinine, BUN and SDMA in cats as a function of time in the study. […] Considerable variation can be seen in the individual values.
To identify treatment-related trends, the data for each of the three analytes were analyzed by a mixed model repeated measures (MMRM) analysis of covariance, with cat as a categorical (class) effect and day of measurement and initial value at the baseline visit as continuous covariates. Because the diets of many of the animals were changed at the baseline visit, and the effects of diet on creatinine and BUN are generally thought to be prompt, the analysis considered only changes in analyte values over the non-baseline visit days.

[2] = in vivo; settings: dog; for Tmax / half-life / AUC(0-inf) / AUC(0-t) / CL/F / Cmax / Vd/F: beagle, po
Protocol: (§1) Groups of four purpose-bred beagles per cohort were administered ascending doses of bexagliflozin in the form of a proline co-crystal consisting of two moles of L-proline for every mole of bexagliflozin. The co-crystal was dissolved in 10% PEG400 and administered by oral gavage to dogs that had been fasted overnight. Control dogs were administered 10% PEG400. One hour after dosing, glucose solution (2 g kg^−1, 5 ml kg^−1) was administered by gavage. Serum glucose concentrations were quantitated by an automated clinical chemistry analyzer for samples collected before dosing, before glucose challenge, and 15, 30, 60, and 120 min after glucose challenge. Urine was collected from 0 to 4 h, 4 to 8 h and 8 to 24 h after dosing for electrolyte analyses (Na^+, K^+, Cl^− and Ca^2+) and glucose measurement. Whole blood samples of approximately 500 μL were collected from the cephalic vein 0, 0.25, 0.5, 1, 2, 4, 8, 12 and 24 h after dosing for pharmacokinetic analysis.

[3] = test system: feline SGLT1; experiment: Inhibition of feline SGLT1
[4] = test system: purpose-bred beagles; experiment: 24 h urine collection (glucose excretion, volume, electrolytes) in dogs; type: in vivo, dog; settings: for 24 h urine Cl^− / 24 h urine K^+ / 24 h urine Na^+ / 24 h urine Volume: mean ± SD, n=4
Protocol: as §1
Urine output increased in the treatment group, consistent with an osmotic diuresis or with a role for the inhibited transporters in water reuptake in the proximal tubule.

Tmax [2]: ~0.5 h
half-life [2]: 1.67 to 5.23 h
AUC(0-inf) ([2]; 0.02 mg/kg): 45.3 ± 7.9 ng·h/mL
AUC(0-t) ([2]; 0.02 mg/kg): 35.6 ± 5.2 ng·h/mL
CL/F ([2]; 0.02 mg/kg): 7.6 mL/min/kg
Cmax ([2]; 0.02 mg/kg): 16.3 ± 2.7 ng/mL
Tmax ([2]; 0.02 mg/kg): 0.5 h
Vd/F ([2]; 0.02 mg/kg): 1.08 ± 0.128 L/kg
half-life ([2]; 0.02 mg/kg): 1.67 ± 0.26 h
AUC(0-inf) ([2]; 0.067 mg/kg): 257 ± 62 ng·h/mL
AUC(0-t) ([2]; 0.067 mg/kg): 240 ± 55 ng·h/mL
CL/F ([2]; 0.067 mg/kg): 4.53 mL/min/kg
Cmax ([2]; 0.067 mg/kg): 72.9 ± 11 ng/mL
Tmax ([2]; 0.067 mg/kg): 0.5 h
Vd/F ([2]; 0.067 mg/kg): 1.06 ± 0.067 L/kg
half-life ([2]; 0.067 mg/kg): 2.81 ± 0.61 h
AUC(0-inf) ([2]; 0.2 mg/kg): 769 ± 95 ng·h/mL
AUC(0-t) ([2]; 0.2 mg/kg): 725 ± 80 ng·h/mL
CL/F ([2]; 0.2 mg/kg): 4.42 mL/min/kg
Cmax ([2]; 0.2 mg/kg): 233 ± 26 ng/mL
Tmax ([2]; 0.2 mg/kg): 0.25 h
Vd/F ([2]; 0.2 mg/kg): 1.12 ± 0.08 L/kg
half-life ([2]; 0.2 mg/kg): 2.95 ± 0.28 h
AUC(0-inf) ([2]; 0.67 mg/kg): 2670 ± 131 ng·h/mL
AUC(0-t) ([2]; 0.67 mg/kg): 2600 ± 104 ng·h/mL
CL/F ([2]; 0.67 mg/kg): 4.2 mL/min/kg
Cmax ([2]; 0.67 mg/kg): 801 ± 46 ng/mL
Tmax ([2]; 0.67 mg/kg): 0.5 h
Vd/F ([2]; 0.67 mg/kg): 1.89 ± 0.398 L/kg
half-life ([2]; 0.67 mg/kg): 5.23 ± 1.23 h
AUC(0-inf) ([2]; 2 mg/kg): 8700 ± 1470 ng·h/mL
AUC(0-t) ([2]; 2 mg/kg): 8600 ± 1520 ng·h/mL
CL/F ([2]; 2 mg/kg): 3.95 mL/min/kg
Cmax ([2]; 2 mg/kg): 2200 ± 539 ng/mL
Tmax ([2]; 2 mg/kg): 0.5 h
Vd/F ([2]; 2 mg/kg): 1.37 ± 0.601 L/kg
half-life ([2]; 2 mg/kg): 3.89 ± 0.88 h
dose proportionality of Cmax and AUC [2]: roughly dose proportional
Compound: OC[C@H]1O[C@@H](c2ccc(Cl)c(Cc3ccc(OCCOC4CC4)cc3)c2)[C@H](O)[C@@H](O)[C@@H]1O [Bexagliflozin, (2S,3R,4R,5 S,6R)-2-(4-chloro-3-(4-(2-cyclopropoxyethoxy)benzyl)phenyl)-6-(hydroxymethyl)tetrahydro-2H-pyran-3,4,5-triol]
model-adjusted population mean BUN concentration ([1]; diabetic cats on bexagliflozin): 33.82 mg/dL
model-adjusted population mean SDMA concentration ([1]; diabetic cats on bexagliflozin): 19.10 µg/dL
model-adjusted population mean creatinine concentration ([1]; diabetic cats on bexagliflozin, non-baseline visits): 1.367 mg/dL
estimated coefficient for day of measurement, creatinine ([1]; diabetic cats, p<0.0001): 0.000928
estimated coefficient for day of measurement, BUN ([1]; diabetic cats, p=0.0172): −0.01346
estimated coefficient for day of measurement, SDMA ([1]; diabetic cats, p=0.5338, not significant): −0.0021
potency for feline SGLT1 (in words) [3]: high potency
24 h urine Cl^− ([4]; dogs, 0.02 mg kg^−1 oral): 307.4 ± 87.7 mg
24 h urine K^+ ([4]; dogs, 0.02 mg kg^−1 oral): 426.2 ± 62.1 mg
24 h urine Na^+ ([4]; dogs, 0.02 mg kg^−1 oral): 178.7 ± 16.7 mg
24 h urine Volume ([4]; dogs, 0.02 mg kg^−1 oral): 118.0 ± 30.8 mL
24 h urine Cl^− ([4]; dogs, 0.067 mg kg^−1 oral): 403.4 ± 111.4 mg
24 h urine K^+ ([4]; dogs, 0.067 mg kg^−1 oral): 476.8 ± 96.5 mg
24 h urine Na^+ ([4]; dogs, 0.067 mg kg^−1 oral): 220.9 ± 53.9 mg
24 h urine Volume ([4]; dogs, 0.067 mg kg^−1 oral): 153.1 ± 44.5 mL
24 h urine Cl^− ([4]; dogs, 0.20 mg kg^−1 oral): 526.5 ± 127.8 mg
24 h urine K^+ ([4]; dogs, 0.20 mg kg^−1 oral): 558.8 ± 118.2 mg
24 h urine Na^+ ([4]; dogs, 0.20 mg kg^−1 oral): 275.7 ± 69.5 mg
24 h urine Volume ([4]; dogs, 0.20 mg kg^−1 oral): 214.1 ± 53.5 mL
24 h urine Cl^− ([4]; dogs, 0.67 mg kg^−1 oral): 573.9 ± 166.5 mg
24 h urine K^+ ([4]; dogs, 0.67 mg kg^−1 oral): 587.7 ± 113.5 mg
24 h urine Na^+ ([4]; dogs, 0.67 mg kg^−1 oral): 300.2 ± 66.4 mg
24 h urine Volume ([4]; dogs, 0.67 mg kg^−1 oral): 225.0 ± 66.9 mL
24 h urine Cl^− ([4]; dogs, 2.0 mg kg^−1 oral): 595.8 ± 80.6 mg
24 h urine K^+ ([4]; dogs, 2.0 mg kg^−1 oral): 599.7 ± 93.5 mg
24 h urine Na^+ ([4]; dogs, 2.0 mg kg^−1 oral): 313.1 ± 35.1 mg
24 h urine Volume ([4]; dogs, 2.0 mg kg^−1 oral): 247.7 ± 35.2 mL
% of the maximum pharmacological effect ([4]; dogs, approximately 1 mg kg^−1 once daily): approximately 90%
maximum urinary glucose excretion per body mass ([4]; dogs, average mass 5.84 kg): 4.23 g glucose per kg of body mass
% of the maximum pharmacodynamic effect ([4]; dogs, dose 50 μg kg^−1, based on results in beagle dogs): 30%
% of the maximum pharmacodynamic effect ([4]; dogs, dose 100 μg kg^−1): 46%
% of the maximum pharmacodynamic effect ([4]; dogs, dose 200 μg kg^−1): 63%
% of the maximum pharmacodynamic effect ([4]; dogs, dose 400 μg kg^−1): 77%
% of the maximum pharmacodynamic effect ([4]; dogs, dose 800 μg kg^−1): 87%
% of the maximum pharmacodynamic effect ([4]; dogs, dose 1600 μg kg^−1): 93%
% of the maximum pharmacodynamic effect ([4]; dogs, dose 3200 μg kg^−1): 96%
% of the maximum pharmacodynamic effect ([4]; dogs, eighth value, no matching dose printed): 98%
Emax for urinary glucose excretion ([4]; dogs, simple logistic model fit): 24.69 g of glucose in 24 h
ED50 for 24 h urinary glucose excretion ([4]; dogs, simple logistic model fit, doses 0.02 to 2.0 mg kg^−1): 0.116 mg/kg
potency by ED50 in dogs relative to cats ([4]; urinary glucose excretion ED50, dogs vs cats): approximately 4 times
